Source: PMC12402003 (Frontiers in Nutrition, 2025)

What was measured:
[1] = tested on: HepG2 cells; assay: MTT cell viability assay in HepG2 cells; format: cell-based, human; settings: 24 h; for effect on cell viability: 50 μM; for cytotoxicity: 100 μM
Protocol: Cell culture: […] Subsequently, the supernatant was removed and 200 μL of MTT solution (0.1 mg/mL) was added to each well to incubate for an additional 4 h (200 μL for Caco-2 cells, 100 μL for HepG2 cells, both at a concentration of 0.1 mg/mL). Finally, formazan crystals were completely dissolved in DMSO in a shaker for 10 min and the absorbance was measured at a wavelength of 490 nm using a microplate absorbance reader (FLUOstar Omera, BMG Labtech, Germany). Cell viability was determined using the following equation: Cell viability (%) = (OD sample/OD control) × 100, where OD is the optical density. The absorbance values for drug fractions […], catechin, and […]-catechin) were compared to those of untreated culture (control). Each treatment was set up in triplicate.

[2] = tested on: Caco-2 cell monolayers; assay: Bidirectional transport across Caco-2 cell monolayer; format: in vitro ADME, human; settings: for efflux rate (BL to AP side) / absorption rate (AP to BL side): 50 μM; for efflux rate (BL to AP side): up to 150 min; for absorption rate (AP to BL side): within 150 min; for ER (efflux rate) / Papp (AP → BL) / Papp (BL → AP): 50 μmol/L, no inhibitor; for transport mechanism into the small intestine: inferred from ER < 1 and inhibitor study
Protocol: The cells were seeded at a density of approximately 10^5 cells/cm^2 on TranswellTM filter (Corning Inc., Lowell, MA) and cultured for 21 d before use. Cell monolayer integrity was controlled by the measurement of trans-epithelial electrical resistance (TEER) with an EVOM epithelial voltammeter equipped with an electrode (World Precision Instruments, Sarasota, FL, United States). […] (a) R(%)=CBL×VBL/CAP×VAP×100 In this, R represents the absorption rate (as a percentage); CBL is the anthocyanin concentration of the BL side (in μM); VBL is the volume of anthocyanins from the BL (in L); CAP is the initial anthocyanin concentration of the AP side (in μM), and VAP is the volume of anthocyanins in the AP chamber (in L). The absorption rate of anthocyanins from BL to AP is calculated using the following Equation b: (b) R(%)=CAP×VAP/CBL×VBL×100 In this, R represents the absorption rate (as a percentage); CAP is the anthocyanin concentration from the AP side (in μM); VAP is the volume of anthocyanins in the AP chamber (in mL); CBL is the initial concentration from the BL side (in μM) and VBL is the volume of anthocyanins in the BL chamber (in L).

[3] = tested on: HepG2 cells; assay: TG and TC content in OA-induced high-fat HepG2 cells; format: cell-based, human; settings: OA-induced high-fat HepG2 cells, 50 μM, 24 h
Protocol: For high fat HepG2 model: […] Afterwards, cells were harvested and lysed. […] For TG and TC assay: […] The medium was removed and the cells were washed twice with PBS. The levels of triglycerides (TG) and total cholesterol (TC) in the cells were determined according to the instructions of test kits.

[4] = tested on: Caco-2/HepG2 co-culture model; assay: Lipid metabolites and AST/ALT in OA-induced Caco-2/HepG2 co-culture model; format: cell-based, human; settings: for reduction in TC content: HepG2 on BL side after transport by Caco-2, 50 μM
Protocol: Caco-2 and HepG2 cells were cultured separately at 37°C with 5% CO2 in DMEM medium containing 10% fetal bovine serum, 50 U/mL penicillin, and 50 μg/mL streptomycin. Caco-2 cells were cultured in 96-well plates for 24 h and harvested with trypsin–EDTA to seed to the AP side (1 × 10^5 cells/mL, 500 μL) in monolayers. 1,500 μL of Minimum Essential Medium (MEM) was simultaneously added to the BL compartment. HepG2 cells were seeded to the BL compartment at the day 15. The total culture period was 18 d.
The co-culture cells were collected by the previous method from the above mentioned, and the cells were lysed on ice for 30 min using IP cell lysis buffer (20 mM Tris pH 7.5, 200 mM NaCl, 10% glycerol, 0.2 mM DTT, 0.1 mM EDTA, 1 mM protease inhibitor). The contents of TG, T-CHO, LDL-C, HDL-C, AST, and ALT from HepG2 were measured following the test kit instructions. Intracellular protein content was measured to calibrate the levels of relevant metabolites using the BCA Protein Quantitation Kit (Beyotime Biotechnology).

[5] = tested on: Srebp-1c; assay: Western blot of Srebp-1c protein in Caco-2/HepG2 co-culture; format: cell-based, human; settings: OA-induced co-culture, 50 μM, 24 h; compared vs. OA
Protocol: (§1) Cells from the co-culture model were lysed and supernatants were collected. The protein concentrations were determined using the BCA Protein Quantitation Kit. Then electrophoresis of samples was conducted using a SDS-PAGE kit (Beyotime Biotechnology) following the manufacturer’s instructions and transferred to poly-vinylidene difluoride (PVDF) membrane. Next, membranes were incubated in 5% nonfat milk to block non-specific antibody binding for 30 min at room temperature and followed by incubating with primary antibodies and secondary antibodies. Chemiluminescence based-images of the blots were acquired using ImageQuant LAS 500 system (GE, United States). Protein bands were quantified using ImageJ (version 1.53a) software. The changes in expression levels of these proteins detected finally are used to evaluate the sample’s effect on lipid metabolism.

[6] = tested on: Fasn; assay: Western blot of Fasn protein in Caco-2/HepG2 co-culture; format: cell-based, human; settings: OA-induced co-culture, 50 μM, 24 h; compared vs. OA
Protocol: as §1

Row | SMILES | effect on cell viability [1] | cytotoxicity [1] | efflux rate (BL to AP side) [2] | absorption rate (AP to BL side) [2] | ER (efflux rate) ([2]; 30 min) | Papp (AP → BL) ([2]; 30 min) | Papp (BL → AP) ([2]; 30 min) | ER (efflux rate) ([2]; 60 min) | Papp (AP → BL) ([2]; 60 min) | Papp (BL → AP) ([2]; 60 min) | ER (efflux rate) ([2]; 90 min) | Papp (BL → AP) ([2]; 90 min) | ER (efflux rate) ([2]; 120 min) | Papp (AP → BL) ([2]; 120 min) | Papp (BL → AP) ([2]; 120 min) | ER (efflux rate) ([2]; 150 min) | Papp (AP → BL) ([2]; 150 min) | Papp (BL → AP) ([2]; 150 min) | transport mechanism into the small intestine [2] | reduction of ALT level [4] | also measured
1 | OC[C@H]1O[C@@H](Oc2cc3c(O)cc(O)cc3[o+]c2-c2ccc(O)c(O)c2)[C@H](O)[C@@H](O)[C@@H]1O [C3G, Cyanidin-3-O-glucoside] | no significant effects | comparable cytotoxicity | 15.41% | 22.47% | 0.49 | 3.9 ± 1.32^Aa* ×10^−5 cm /s | 1.8 ± 0.14^Ba ×10^−5 cm /s | 0.56 | 1.8 ± 0.07^Cb* ×10^−5 cm /s | 1.0 ± 0.17^Bb ×10^−5 cm /s | 0.53 | 0.6 ± 0.04^Cc ×10^−5 cm /s | 0.57 | 0.9 ± 0.03^Cb* ×10^−5 cm /s | 0.5 ± 0.08^Ccd ×10^−5 cm /s | 0.54 | 0.7 ± 0.03^Bb* ×10^−5 cm /s | 0.4 ± 0.04^Cde ×10^−5 cm /s | passive diffusion | not observed | Papp (AP → BL) ([2]; 90 min): 1.1 ± 0.02^Cb* ×10^−5 cm /s; reduction of TG content [3]: 21%; reduction of AST level [4]: not observed; reduction of OA-induced LDL-C increase ([4]; 50 μM): did not change; reduction in TC content [4]: 7.69%; Srebp-1c protein expression level (densitometry) [5]: 1.32
2 | O.Oc1cc(O)c2c(c1)O[C@H](c1ccc(O)c(O)c1)[C@@H](O)C2 [catechin] | no significant effects | comparable cytotoxicity | 68.71% | 73.41% | 0.77 | 7.9 ± 0.26^Ba ×10^−5 cm /s | 6.1 ± 2.78^Aa ×10^−5 cm /s | 0.55 | 4.6 ± 0.43^Ab* ×10^−5 cm /s | 2.5 ± 0.28^Ab ×10^−5 cm /s | 0.52 | 1.6 ± 0.11^Ab ×10^−5 cm /s | 0.51 | 2.5 ± 0.19^Ad* ×10^−5 cm /s | 1.31 ± 0.13^Ab ×10^−5 cm /s | 0.48 | 2.2 ± 0.52^Ad* ×10^−5 cm /s | 1.0 ± 0.03^Ab ×10^−5 cm /s | passive diffusion | not observed | reduction of AST level [4]: not observed; reduction in TC content [4]: 7.69%; Fasn protein expression level (densitometry) [6]: 1.11
